Assay results published in patent US6916798B2, “Inhibitors of GSK-3 and uses thereof” (Vertex Pharmaceuticals Incorporated, priority 2001, dated 2005).

Assays:
Format in all cases: biochemical
[1] = target: T1, Aurora-2 (Homo sapiens, UniProt O14965); assay: Ki determination for the inhibition of Aurora-2, standard coupled enzyme assay; conditions: 70 nM Aurora-2, 800 μM peptide LRRASLG, 30° C.
T1 sequence (O14965 1-403): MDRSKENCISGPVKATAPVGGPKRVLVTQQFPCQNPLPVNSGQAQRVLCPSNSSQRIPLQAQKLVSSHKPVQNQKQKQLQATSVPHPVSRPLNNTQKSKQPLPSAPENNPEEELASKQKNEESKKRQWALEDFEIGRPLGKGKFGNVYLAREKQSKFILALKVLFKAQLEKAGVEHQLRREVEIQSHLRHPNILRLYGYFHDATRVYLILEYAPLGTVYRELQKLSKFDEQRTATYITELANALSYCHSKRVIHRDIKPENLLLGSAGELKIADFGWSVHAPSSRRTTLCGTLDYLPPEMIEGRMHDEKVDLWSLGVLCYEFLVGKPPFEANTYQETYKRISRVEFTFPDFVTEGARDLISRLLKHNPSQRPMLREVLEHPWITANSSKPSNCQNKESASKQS
Procedure: Compounds were screened in the following manner for their ability to inhibit Aurora-2 using a standard coupled enzyme assay (Fox et al. (1998) Protein Sci. 7, 2249).
(§1) To an assay stock buffer solution containing 0.1M HEPES 7.5, 10 mM MgCl2, 1 mM DTT, 25 mM NaCl, 2.5 mM phosphoenolpyruvate, […], 30 mg/ml pyruvate kinase, 10 mg/ml lactate dehydrogenase, 40 mM ATP, and 800 μM peptide (LRRASLG, American Peptide, Sunnyvale, Calif.) was added a DMSO solution of a compound of the present invention to a final concentration of 30 μM. The resulting mixture was incubated at 30° C. for 10 min. The reaction was initiated by the addition of 10 μL of Aurora-2 stock solution to give a final concentration of 70 nM in the assay. The rates of reaction were obtained by monitoring absorbance at 340 nm over a 5 minute read time at 30° C. using a BioRad Ultramark plate reader (Hercules, Calif.). The Ki values were determined from the rate data as a function of inhibitor concentration.

[2] = target: CDK-2/Cyclin A (Homo sapiens, UniProt P24941); assay: Inhibition of CDK-2, standard coupled enzyme assay; conditions: 25 nM CDK-2/Cyclin A, 100 μM peptide, 30° C.
Procedure: Compounds were screened in the following manner for their ability to inhibit CDK-2 using a standard coupled enzyme assay (Fox et al (1998) Protein Sci 7, 2249).
as §1, with “[…], […]” for “dehydrogenase, 40”, “and 100” for “and 800”, “peptide ([…],” for “peptide (LRRASLG,”, “of CDK-2/Cyclin A” for “of Aurora-2”, “of 25” for “of 70”, “a 5-minute” for “a 5 minute”

[3] = target: T2, GSK-3β (AA 1-420) (Homo sapiens, UniProt P49841); assay: Ki determination for the inhibition of GSK-3, standard coupled enzyme system; conditions: 20 μM ATP, 300 μM peptide, 20 nM GSK-3β, 30° C.; read-out: Ki values for GSK-3
T2 construct: GSK-3β (AA 1-420)
T2 sequence (P49841 whole entry, the tested form may be a part): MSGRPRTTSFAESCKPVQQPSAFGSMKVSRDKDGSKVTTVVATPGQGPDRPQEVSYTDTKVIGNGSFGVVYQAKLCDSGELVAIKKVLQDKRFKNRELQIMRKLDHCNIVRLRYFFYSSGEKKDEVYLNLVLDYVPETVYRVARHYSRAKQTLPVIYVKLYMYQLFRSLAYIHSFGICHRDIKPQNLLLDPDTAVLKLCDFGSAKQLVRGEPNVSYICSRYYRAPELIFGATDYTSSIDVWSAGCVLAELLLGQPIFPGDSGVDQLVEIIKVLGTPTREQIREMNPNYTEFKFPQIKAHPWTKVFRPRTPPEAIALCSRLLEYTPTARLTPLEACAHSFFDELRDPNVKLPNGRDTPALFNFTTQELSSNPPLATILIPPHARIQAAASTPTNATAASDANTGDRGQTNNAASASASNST
Procedure: Final substrate concentrations in the assay were 20 μM ATP (Sigma Chemicals, St Louis, Mo.) and 300 μM peptide (HSSPHQS(PO3H2)EDEEE, American Peptide, Sunnyvale, Calif.). Reactions were carried out at 30° C. and 20 nM GSK-3β. Final concentrations of the components of the coupled enzyme system were 2.5 mM phosphoenolpyruvate, 300 μM NADH, 30 μg/ml pyruvate kinase and 10 μg/ml lactate dehydrogenase.
An assay stock buffer solution was prepared containing all of the reagents listed above with the exception of ATP and the test compound of interest. The assay stock buffer solution (175 μl) was incubated in a 96 well plate with 5 μl of the test compound of interest at final concentrations spanning 0.002 μM to 30 μM at 30 ° C. for 10 min. […] The reaction was initiated by the addition of 20 μl of ATP (final concentration 20 μM). Rates of reaction were obtained using a Molecular Devices Spectramax plate reader (Sunnyvale, Calif.) over 10 min at 30° C. The Ki values were determined from the rate data as a function of inhibitor concentration.

SMILES: CCOc1ccc(C2=NNC(=O)C2=NNc2ccc(N3CCOCC3)cc2)cc1OCC [Compound 116, 5-(3,4-Diethoxy-phenyl)-4-[(4-morpholin-4-yl-phenyl)-hydrazono]-2,4-dihydro-pyrazol-3-one]
- Ki [1]: < 100 nM
- Ki [2]: 1000 to 20000 nM

SMILES: COc1cc(C2=NNC(=O)C2=NNc2ccc(Cl)cc2)cc(OC)c1OC [Compound 23]
- Ki [3]: < 100 nM
- Ki [1]: < 100 nM

SMILES: COc1ccc(C2=NNC(=O)C2=CNc2ccc(OC)c(O)c2)cc1 [Compound 98]
- Ki [3]: < 100 nM
- Ki [2]: 100 to 1000 nM

SMILES: COc1ccc(C2=NNC(=O)C2=NNc2ccc(OCCCN(C)CCO)c(-c3ccccc3)c2)cc1OC [Compound 120, 5-(3,4-dimethoxy-phenyl)-4-[(6-{3-[(2-hydroxy-ethyl)-methyl-amino]-propoxy}-biphenyl-3-yl)-hydrazono]-2,4-dihydro-pyrazol-3-one]
- Ki [3]: < 100 nM
- Ki [2]: 1000 to 20000 nM

SMILES: COc1ccc(C2=NNC(=O)C2=CNc2ccc(Oc3ccccc3)cc2)cc1 [Compound 91]
- Ki [3]: 100 to 1000 nM
- Ki [2]: 1000 to 20000 nM

SMILES: CCN(CC)c1ccc(N/N=C2\C(=O)NN=C2c2ccc(OC)c(OC)c2)cc1 [Compound 37]
- Ki [3]: < 100 nM
- Ki [1]: < 100 nM

SMILES: COc1ccc(C2=NNC(=O)C2=CNc2cccc(C(=O)c3ccccc3)c2)cc1 [Compound 93]
- Ki [3]: 100 to 1000 nM
- Ki [2]: 1000 to 20000 nM

SMILES: COc1ccc(C2=NNC(=O)C2=CNc2ccc3c(c2)NCC3)cc1 [Compound 96]
- Ki [3]: 100 to 1000 nM
- Ki [2]: 1000 to 20000 nM

SMILES: COc1ccc(C2=NNC(=O)C2=CNc2ccc3c(c2)N(C(C)=O)CC3)cc1 [Compound 97]
- Ki [3]: < 100 nM
- Ki [2]: 1000 to 20000 nM

SMILES: COc1cccc(N/N=C2\C(=O)NN=C2c2ccc(OC)c(OC)c2)c1 [Compound 73]
- Ki [3]: < 100 nM
- Ki [1]: < 100 nM

SMILES: COc1ccc(N/N=C2\C(=O)NN=C2c2cc(OC)c(OC)c(OC)c2)cc1 [Compound 22]
- Ki [3]: < 100 nM
- Ki [1]: < 100 nM

SMILES: COc1ccc(C2=NNC(=O)C2=CNc2cccc(S(N)(=O)=O)c2)cc1OC [Compound 95, 3-{[3-(3,4-Dimethoxy-phenyl)-5-oxo-1,5-dihydro-pyrazol-4-ylidenemethyl]-amino}-benzenesulfonamide]
- Ki [3]: 100 to 1000 nM
- Ki [2]: 1000 to 20000 nM

SMILES: COc1ccc(C2=NNC(=O)/C2=N\Nc2ccc(C#N)cc2)cc1OC [Compound 58]
- Ki [3]: < 100 nM
- Ki [1]: 100 to 1000 nM

SMILES: COc1ccc(N/N=C2\C(=O)NN=C2c2ccc(OC)c(OC)c2)cc1 [Compound 47]
- Ki [3]: < 100 nM
- Ki [1]: < 100 nM

SMILES: COc1ccc(C2=NNC(=O)/C2=N\Nc2cccc(Cl)c2)cc1OC [Compound 70]
- Ki [3]: < 100 nM
- Ki [1]: 100 to 1000 nM

SMILES: COc1ccc(C2=NNC(=O)C2=NNc2ccc(Oc3ccccc3)cc2)cc1OC [Compound 86]
- Ki [3]: < 100 nM
- Ki [1]: < 100 nM

SMILES: COc1ccc(C2=NNC(=O)/C2=N\Nc2ccc(N(C)C)cc2)cc1OC [Compound 52]
- Ki [3]: < 100 nM
- Ki [1]: < 100 nM

SMILES: COc1ccc(C2=NNC(=O)C2=NNc2ccc(OCCCN(C)C)c(-c3ccccc3)c2)cc1OC [Compound 121, 5-(3,4-Dimethoxy-phenyl)-4-{[6-(3-dimethylamino-propoxy)-biphenyl-3-yl]-hydrazono}-2,4-dihydro-pyrazol-3-one]
- Ki [3]: < 100 nM
- Ki [2]: 1000 to 20000 nM

SMILES: COc1ccc(C2=NNC(=O)/C2=N\Nc2ccc(N3CCOCC3)cc2)cc1 [Compound 60]
- Ki [3]: < 100 nM
- Ki [1]: 100 to 1000 nM

SMILES: COc1ccc(C2=NNC(=O)C2=NNc2ccc(OC)c(-c3cccnc3)c2)cc1OC [Compound 106, 5-(3,4-Dimethoxy-phenyl)-4-[(4-methoxy-3-pyridin-3-yl-phenyl)-hydrazono]-2,4-dihydro-pyrazol-3-one]
- Ki [3]: < 100 nM
- Ki [2]: 1000 to 20000 nM

SMILES: COc1ccc(C2=NNC(=O)C2=NNc2ccc(-c3ccc(F)cc3)cc2)cc1OC [Compound 83]
- Ki [3]: < 100 nM
